# Reference: ChEMBL document CHEMBL1201862, “PubChem BioAssay data set” (2004)
# The source made the active and inactive calls.
# Tests used:
# [1] = test system: Streptococcus sp. 'group A'; assay: Streptococcus pyogenes SK(-)GAS viability under kanamycin – luminescence, BacTiterGlo, confirmation, counter-screen for streptokinase expression inhibitor project, dose response (AID 1900); type: functional, organism-based
# [2] = Vero E6 cell cytotoxicity, dose response, cytotoxicity control for non-replicating M. tuberculosis project, secondary assay (AID 492998); type: functional, VeroE6; conditions: Vero C1008
# [3] = biological target: T1, Streptokinase A (Streptococcus pyogenes serotype M1, UniProt P10520); assay: viability-normalized secreted streptokinase activity reduction – plasminogen activation absorbance, OD405, dose response (AID 1914); type: functional, Streptococcus pyogenes M1 GAS;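 note: secreted streptokinase activity via plasminogen activation per viability signal from cell pellet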
# T1 sequence (P10520 whole entry): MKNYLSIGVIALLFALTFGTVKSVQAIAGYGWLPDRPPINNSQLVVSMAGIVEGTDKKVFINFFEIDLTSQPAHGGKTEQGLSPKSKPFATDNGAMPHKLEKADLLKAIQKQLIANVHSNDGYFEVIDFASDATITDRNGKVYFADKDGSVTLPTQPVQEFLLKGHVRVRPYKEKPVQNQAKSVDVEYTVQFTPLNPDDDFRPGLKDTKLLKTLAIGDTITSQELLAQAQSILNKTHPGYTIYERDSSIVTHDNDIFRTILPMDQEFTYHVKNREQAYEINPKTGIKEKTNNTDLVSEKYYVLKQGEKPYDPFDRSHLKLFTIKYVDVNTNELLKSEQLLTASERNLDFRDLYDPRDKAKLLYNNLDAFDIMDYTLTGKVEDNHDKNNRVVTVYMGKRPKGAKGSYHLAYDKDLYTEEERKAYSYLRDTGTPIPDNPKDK
# [4] = cells; type: functional
# [5] = test system: Streptococcus; assay: GAS UMAA2166 growth inhibition – luminescence, BacTiterGlo, counter-screen for streptokinase expression inhibitor project, dose response (AID 1915); type: functional, organism-based;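 note: potency for reduction of bacterial viability or growth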
# [6] = microbe, parasite or virus in culture; type: functional; conditions: Mycobacterium tuberculosis
# [7] = HepG2 cell cytotoxicity, dose response, cytotoxicity control for non-replicating M. tuberculosis project (AID 489018); type: functional; conditions: Mycobacterium tuberculosis
# [8] = THP-1 cell cytotoxicity, dose response, cytotoxicity control for non-replicating M. tuberculosis project (AID 489025); type: functional
# [9] = biological target: Cytochrome P450 2C9 (Homo sapiens, UniProt P11712)
# [10] = biological target: T2, Leucine aminopeptidase (Plasmodium falciparum 3D7, UniProt Q8IL11); assay: P. falciparum M17LAP inhibitors, primary screen, biochemical, fluorogenic H-Leu-NHMec substrate, 1536-well (AID 1619); type: functional
# T2 sequence (Q8IL11 whole entry): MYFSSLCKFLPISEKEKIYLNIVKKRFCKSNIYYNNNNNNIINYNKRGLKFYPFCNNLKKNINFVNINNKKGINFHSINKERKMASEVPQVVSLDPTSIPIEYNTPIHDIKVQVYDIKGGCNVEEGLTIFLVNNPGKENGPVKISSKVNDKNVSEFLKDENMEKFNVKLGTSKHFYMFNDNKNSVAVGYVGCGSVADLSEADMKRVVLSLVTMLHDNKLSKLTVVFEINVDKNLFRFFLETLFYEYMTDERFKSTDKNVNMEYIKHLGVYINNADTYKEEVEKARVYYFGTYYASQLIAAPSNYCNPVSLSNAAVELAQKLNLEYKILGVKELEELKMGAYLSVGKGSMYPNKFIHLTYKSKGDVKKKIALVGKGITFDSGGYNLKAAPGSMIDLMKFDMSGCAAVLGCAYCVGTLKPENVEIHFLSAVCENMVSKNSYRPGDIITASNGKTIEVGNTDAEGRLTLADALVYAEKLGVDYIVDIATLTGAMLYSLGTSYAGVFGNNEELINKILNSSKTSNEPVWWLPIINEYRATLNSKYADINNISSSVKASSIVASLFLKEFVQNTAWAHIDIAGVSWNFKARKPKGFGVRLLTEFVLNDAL
# [11] = biological target: Voltage-dependent T-type calcium channel subunit alpha-1H (Homo sapiens, UniProt O95180); type: functional;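 note: channel activity triggered by adding a high calcium stimulation buffer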
# [12] = test system: SN12K1; assay: cells; type: functional; conditions: Homo sapiens
# [13] = test system: P388/ADR; assay: cells; type: functional; conditions: Mus musculus
# [14] = test system: P388; assay: cells; type: functional; conditions: Mus musculus
# [15] = biological target: T3, Aminopeptidase N (Plasmodium falciparum FcB1/Columbia, UniProt O96935); assay: malaria alanyl aminopeptidase activity blockers – biochemical, fluorogenic H-Leu-NHMec substrate, 1536-well (AID 1445); parameters: species or system Plasmodium falciparum 3D7, 3D7
# T3 sequence (O96935 whole entry): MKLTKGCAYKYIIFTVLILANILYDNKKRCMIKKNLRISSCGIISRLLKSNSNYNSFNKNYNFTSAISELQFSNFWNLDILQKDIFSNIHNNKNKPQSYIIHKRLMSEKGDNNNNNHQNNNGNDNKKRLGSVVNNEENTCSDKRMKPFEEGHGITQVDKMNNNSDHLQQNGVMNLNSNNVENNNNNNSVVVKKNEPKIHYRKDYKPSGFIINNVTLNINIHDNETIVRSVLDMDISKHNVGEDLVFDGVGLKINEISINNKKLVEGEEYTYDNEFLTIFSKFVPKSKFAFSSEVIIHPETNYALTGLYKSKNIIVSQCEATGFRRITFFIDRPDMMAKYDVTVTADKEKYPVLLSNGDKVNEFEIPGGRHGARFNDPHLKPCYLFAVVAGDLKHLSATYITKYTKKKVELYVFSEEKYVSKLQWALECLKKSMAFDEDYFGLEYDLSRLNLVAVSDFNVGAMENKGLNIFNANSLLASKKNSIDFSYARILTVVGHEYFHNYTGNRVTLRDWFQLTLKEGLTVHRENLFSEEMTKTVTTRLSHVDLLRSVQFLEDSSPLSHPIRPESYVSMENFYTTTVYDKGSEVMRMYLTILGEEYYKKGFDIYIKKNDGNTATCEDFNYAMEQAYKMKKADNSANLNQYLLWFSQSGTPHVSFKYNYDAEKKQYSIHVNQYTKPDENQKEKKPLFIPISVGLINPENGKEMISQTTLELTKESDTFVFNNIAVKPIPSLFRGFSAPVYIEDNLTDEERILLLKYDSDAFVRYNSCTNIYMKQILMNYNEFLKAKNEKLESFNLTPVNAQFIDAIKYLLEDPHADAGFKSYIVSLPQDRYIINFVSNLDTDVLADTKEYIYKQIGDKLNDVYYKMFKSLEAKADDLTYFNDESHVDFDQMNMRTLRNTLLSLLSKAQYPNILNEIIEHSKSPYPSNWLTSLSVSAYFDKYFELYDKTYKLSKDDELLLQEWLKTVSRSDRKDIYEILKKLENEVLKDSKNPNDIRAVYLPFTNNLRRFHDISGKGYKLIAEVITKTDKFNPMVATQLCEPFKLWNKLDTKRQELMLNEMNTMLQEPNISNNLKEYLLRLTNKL
# [16] = biological target: T4, Fatty acid synthase (Homo sapiens, UniProt P49327); assay: inhibition of human FAS-TE enzyme activity – biochemical, endpoint fluorescence intensity, uHTS hits, dose response (AID 624327); type: functional;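 note: fluorescence from hydrolysis of an O-methyl fluorescein acyl ester substrate by the enzyme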
# [17] = biological target: T4, Fatty acid synthase; assay: inhibition of human FAS-TE enzyme activity – biochemical, kinetic fluorescence intensity, dose response (AID 624326); type: functional;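 note: rate of fluorescence rise from hydrolysis of a fluorogenic O-methyl fluorescein ester substrate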
# [18] = viability of PTEN-deleted HCT116 cells – cell-based, HCT116 PTEN knockout, dose response (AID 1047); type: functional;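 note: HCT116 colon tumor cells with PTEN knocked out; cells exposed to compound for 60 hours before readout; potency for loss of cell viability measured by luminescence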
# [19] = viability of HCT116 lacking mutant beta-catenin – cell-based, human colon tumor, dose response (AID 1045); type: functional;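 note: HCT116 colon tumor cells with beta catenin knocked out; cells exposed to compound for 60 hours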
# [20] = biological target: T5, DNA repair and recombination protein RAD54-like (Homo sapiens, UniProt Q92698); assay: RAD54 Holliday junction migration blockers – biochemical, fluorescence, cherry-picked samples, dose series, confirmation (AID 651657); type: functional
# T5 sequence (Q92698 whole entry): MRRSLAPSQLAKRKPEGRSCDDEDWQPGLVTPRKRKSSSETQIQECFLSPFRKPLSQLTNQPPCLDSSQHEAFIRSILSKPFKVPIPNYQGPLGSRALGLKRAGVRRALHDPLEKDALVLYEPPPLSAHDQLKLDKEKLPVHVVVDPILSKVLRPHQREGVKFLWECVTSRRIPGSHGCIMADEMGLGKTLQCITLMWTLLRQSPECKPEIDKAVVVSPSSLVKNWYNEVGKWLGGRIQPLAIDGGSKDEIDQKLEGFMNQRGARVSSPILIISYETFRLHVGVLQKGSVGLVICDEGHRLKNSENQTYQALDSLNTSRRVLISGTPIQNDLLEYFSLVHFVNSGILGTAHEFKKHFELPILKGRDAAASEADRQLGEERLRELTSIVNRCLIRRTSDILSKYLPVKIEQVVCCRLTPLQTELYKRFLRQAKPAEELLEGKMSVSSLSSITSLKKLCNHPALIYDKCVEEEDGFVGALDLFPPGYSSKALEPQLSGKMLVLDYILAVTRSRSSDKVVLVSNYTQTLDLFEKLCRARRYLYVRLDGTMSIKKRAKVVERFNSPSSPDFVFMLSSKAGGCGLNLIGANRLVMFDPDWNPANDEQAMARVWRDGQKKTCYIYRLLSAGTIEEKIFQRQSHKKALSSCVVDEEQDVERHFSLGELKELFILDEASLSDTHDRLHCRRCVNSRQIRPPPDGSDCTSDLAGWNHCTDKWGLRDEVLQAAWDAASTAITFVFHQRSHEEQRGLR
# [21] = NIH3T3 cell viability loss – ATP luminescence, mouse fibroblasts, counter-screen, dose response (AID 2010); type: functional, cell-based;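 note: cells exposed to compound for about 90 hours before reading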
# [22] = Trypanosoma cruzi growth suppression in host cells – NIH3T3 host cells, beta-gal luminescence, confirmation (AID 2044); type: functional, cell-based;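 note: intracellular parasites grown in NIH/3T3 mouse fibroblasts as host cells; luminescent beta-galactosidase reporter signal from transgenic T. cruzi replicating inside host cells; inhibitors lower the luminescence signal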
# [23] = biological target: Induced myeloid leukemia cell differentiation protein Mcl-1 (Homo sapiens, UniProt Q07820); type: functional
# [24] = Luminescence Cell-Based Dose Retest to Confirm Inhibitors of Cancer Stem Cells. [Related pubchem assays (depositor defined):AID2717, AID2721]; type: functional; conditions: Homo sapiens
# Sequence of Voltage-dependent T-type calcium channel subunit alpha-1H (O95180 whole entry): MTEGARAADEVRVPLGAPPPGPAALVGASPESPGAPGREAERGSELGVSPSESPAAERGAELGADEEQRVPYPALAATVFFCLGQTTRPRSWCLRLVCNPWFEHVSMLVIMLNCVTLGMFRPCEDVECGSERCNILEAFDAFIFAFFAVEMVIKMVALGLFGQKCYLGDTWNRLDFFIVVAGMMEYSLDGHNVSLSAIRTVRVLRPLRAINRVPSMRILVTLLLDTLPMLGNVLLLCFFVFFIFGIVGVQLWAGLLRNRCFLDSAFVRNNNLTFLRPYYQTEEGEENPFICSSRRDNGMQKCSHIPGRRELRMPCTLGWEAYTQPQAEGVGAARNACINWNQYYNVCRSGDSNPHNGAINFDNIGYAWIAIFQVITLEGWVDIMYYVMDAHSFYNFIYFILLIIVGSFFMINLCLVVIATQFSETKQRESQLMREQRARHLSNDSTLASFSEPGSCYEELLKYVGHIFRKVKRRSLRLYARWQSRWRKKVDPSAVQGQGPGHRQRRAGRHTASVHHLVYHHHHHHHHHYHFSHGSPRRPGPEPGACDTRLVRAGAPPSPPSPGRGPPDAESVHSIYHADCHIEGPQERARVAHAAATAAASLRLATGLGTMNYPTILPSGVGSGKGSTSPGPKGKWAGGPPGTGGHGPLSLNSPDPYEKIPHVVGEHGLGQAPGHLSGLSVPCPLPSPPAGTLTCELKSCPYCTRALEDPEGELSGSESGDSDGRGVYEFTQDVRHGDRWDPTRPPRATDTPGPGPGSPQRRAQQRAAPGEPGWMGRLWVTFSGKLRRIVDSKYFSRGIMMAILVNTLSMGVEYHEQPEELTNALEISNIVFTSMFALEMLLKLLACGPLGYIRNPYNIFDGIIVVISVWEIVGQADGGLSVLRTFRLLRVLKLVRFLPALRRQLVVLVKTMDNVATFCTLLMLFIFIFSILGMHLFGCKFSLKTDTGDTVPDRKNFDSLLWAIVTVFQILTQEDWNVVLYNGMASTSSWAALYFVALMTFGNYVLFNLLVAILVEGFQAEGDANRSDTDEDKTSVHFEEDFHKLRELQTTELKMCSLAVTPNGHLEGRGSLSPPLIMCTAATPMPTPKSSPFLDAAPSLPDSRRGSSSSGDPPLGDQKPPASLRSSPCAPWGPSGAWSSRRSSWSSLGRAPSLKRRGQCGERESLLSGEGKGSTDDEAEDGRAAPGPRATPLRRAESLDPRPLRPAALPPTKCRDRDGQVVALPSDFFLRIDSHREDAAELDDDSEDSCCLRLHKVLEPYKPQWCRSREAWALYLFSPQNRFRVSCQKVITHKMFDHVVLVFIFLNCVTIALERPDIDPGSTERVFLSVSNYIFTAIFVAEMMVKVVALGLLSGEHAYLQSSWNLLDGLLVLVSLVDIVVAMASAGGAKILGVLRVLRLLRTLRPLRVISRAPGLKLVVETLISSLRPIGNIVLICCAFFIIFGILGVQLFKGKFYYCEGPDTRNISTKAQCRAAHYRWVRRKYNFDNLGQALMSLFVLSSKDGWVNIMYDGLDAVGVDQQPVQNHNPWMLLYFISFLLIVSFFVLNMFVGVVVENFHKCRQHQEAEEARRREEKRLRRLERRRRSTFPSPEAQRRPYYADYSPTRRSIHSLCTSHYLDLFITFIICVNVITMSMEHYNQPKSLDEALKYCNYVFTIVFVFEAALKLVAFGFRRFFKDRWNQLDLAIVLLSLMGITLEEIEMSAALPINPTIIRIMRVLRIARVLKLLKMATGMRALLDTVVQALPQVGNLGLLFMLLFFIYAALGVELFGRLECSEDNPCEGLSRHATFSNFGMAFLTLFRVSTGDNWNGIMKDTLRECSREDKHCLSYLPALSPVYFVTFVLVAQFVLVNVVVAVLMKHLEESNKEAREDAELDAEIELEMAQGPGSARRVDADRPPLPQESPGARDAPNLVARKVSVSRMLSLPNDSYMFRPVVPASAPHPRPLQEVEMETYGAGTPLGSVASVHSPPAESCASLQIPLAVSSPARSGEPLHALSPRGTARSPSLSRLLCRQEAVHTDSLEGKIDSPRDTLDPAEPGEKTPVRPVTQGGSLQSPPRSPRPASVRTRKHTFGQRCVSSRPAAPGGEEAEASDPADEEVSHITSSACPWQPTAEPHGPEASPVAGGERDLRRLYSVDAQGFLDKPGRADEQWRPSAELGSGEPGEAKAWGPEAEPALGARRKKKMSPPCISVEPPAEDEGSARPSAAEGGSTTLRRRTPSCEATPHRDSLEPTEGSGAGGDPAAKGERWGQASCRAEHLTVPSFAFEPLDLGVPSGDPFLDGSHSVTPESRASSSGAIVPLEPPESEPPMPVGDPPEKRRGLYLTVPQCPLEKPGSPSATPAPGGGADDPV
# Sequence of Induced myeloid leukemia cell differentiation protein Mcl-1 (Q07820 whole entry): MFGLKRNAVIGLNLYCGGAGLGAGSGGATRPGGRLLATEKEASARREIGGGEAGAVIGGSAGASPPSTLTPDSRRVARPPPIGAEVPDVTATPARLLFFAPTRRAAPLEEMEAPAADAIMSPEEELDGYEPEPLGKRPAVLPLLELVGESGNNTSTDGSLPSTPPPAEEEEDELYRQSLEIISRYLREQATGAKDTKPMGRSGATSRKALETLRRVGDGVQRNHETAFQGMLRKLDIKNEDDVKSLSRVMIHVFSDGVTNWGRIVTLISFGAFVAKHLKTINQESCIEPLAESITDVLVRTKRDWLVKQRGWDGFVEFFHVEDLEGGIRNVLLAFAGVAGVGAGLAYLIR
# Sequence of Cytochrome P450 2C9 (P11712 whole entry): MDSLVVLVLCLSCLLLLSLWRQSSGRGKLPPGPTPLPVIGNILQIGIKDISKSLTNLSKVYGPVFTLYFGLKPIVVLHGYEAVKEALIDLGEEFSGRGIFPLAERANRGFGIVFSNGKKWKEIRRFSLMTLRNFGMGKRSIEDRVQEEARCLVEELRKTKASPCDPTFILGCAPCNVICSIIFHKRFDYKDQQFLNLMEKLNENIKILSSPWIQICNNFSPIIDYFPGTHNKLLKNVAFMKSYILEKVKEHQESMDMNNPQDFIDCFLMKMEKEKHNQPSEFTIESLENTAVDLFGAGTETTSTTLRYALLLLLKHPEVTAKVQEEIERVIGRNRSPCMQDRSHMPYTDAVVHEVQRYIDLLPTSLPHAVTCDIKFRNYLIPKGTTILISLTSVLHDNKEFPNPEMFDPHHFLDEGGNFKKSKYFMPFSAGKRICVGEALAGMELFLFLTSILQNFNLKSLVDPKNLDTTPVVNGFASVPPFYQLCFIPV
smiles,measurement,setting,value
Cc1cc(NC(=O)c2sccc2C)n(-c2nc3ccccc3[nH]2)n1,EC50,[1],3.9 µM (active)
same,CC50,[2],12.8 µM (active)
same,EC50,[3],> 150 µM (not active)
same,IC50,[4],4.09 µM (active)
same,EC50,[5],5.49 µM (active)
same,CC50,[6],28.5 µM (active)
same,CC50,[7],> 20 µM (active)
same,CC50,[8],> 40 µM (active)
Cn1c(Oc2ccccc2)c(C=O)c2ccccc21,AC50,[9],inconclusive
CC1CCN(S(=O)(=O)c2ccc(NC(=O)CSc3ncccc3C(=O)O)cc2)CC1,IC50,[10],9.68 µM (active)
O=C(CSc1nnc(-c2ccc(Cl)cc2)n1Cc1ccco1)NCc1ccc2c(c1)OCO2,EC50,[11],1.11 µM (active)
COc1cc(C2c3cc4c(cc3[C@@H](Nc3ccc5c(c3)OCO5)C3COC(=O)[C@H]23)OCO4)cc(OC)c1O (some centres not stated),GI50,[12],< 0.0414 µM (active)
same,GI50,[13],0.0548 µM (active)
same,GI50,[14],< 0.01 µM (active)
CC(C)NS(=O)(=O)c1ccc(CCC(=O)NCc2ccc3c(c2)OCO3)cc1,IC50,[15],33.6 µM (active)
C=CCn1cc(C(=O)NCc2ccco2)c(=O)c2cc(S(=O)(=O)N3CCCCCC3)ccc21,EC50,[11],6.32 µM (active)
same,IC50,[16],6.69 µM (active)
same,IC50,[17],7.26 µM (active)
Nc1ccc2c(c1)CN1C(=O)c3ccccc3C1=N2 [DANIQUIDONE],GI50,[12],23.6 µM (inactive)
same,GI50,[13],24.8 µM (inactive)
same,GI50,[14],4.36 µM (inactive)
O=C(NC1CN2CCC1CC2)c1cc(Cl)c([N+](=O)[O-])c2nc[nH]c12 (configuration not stated),EC50,[18],16.3 µM (active)
same,EC50,[19],12.1 µM (active)
same,AC50,[20],41.6 µM (active)
O=S(=O)(c1ccc(Oc2ccc(Cl)cc2)c(S(=O)(=O)N2CCCCC2)c1)N1CCCCC1,EC50,[11],2.28 µM (active)
CCc1ccc(NC(=O)C2CCCCC2C(=O)O)cc1 (configuration not stated),IC50,[10],12.1 µM (active)
COc1ccc(/C=N/NC(=O)CSc2nnc(O)nc2O)cc1,IC50,[10],7.36 µM (active)
same,IC50,[15],29 µM (active)
CCn1c(NC(=O)c2nn(C)cc2Br)nc2ccccc21,CC50,[2],> 20 µM (active)
same,IC50,[4],5.5 µM (active)
same,CC50,[6],> 40 µM (active)
same,CC50,[7],> 20 µM (active)
same,CC50,[8],> 40 µM (active)
Cc1c(Cl)cccc1NC(=O)c1nc(C)n(-c2cc(OC(C)C)c(Cl)cc2Cl)n1,EC50,[21],> 60 µM (not active)
same,EC50,[11],7.19 µM (active)
same,EC50,[22],2.77 µM (active)
c1ccc2c(c1)SP1Sc3ccccc3P21 (configuration not stated),GI50,[12],56.5 µM (inactive)
same,GI50,[13],28.2 µM (inactive)
same,GI50,[14],54.2 µM (inactive)
COc1cccc2c1C(=O)c1c(O)c3c(c(O)c1C2=O)C[C@@](O)(C(C)=O)C[C@@H]3OC1CC(N(C)C)C(O)C(C)O1 (some centres not stated),GI50,[12],0.01 µM (active)
same,GI50,[13],0.01 µM (active)
same,GI50,[14],0.01 µM (active)
COc1ccc(CNc2nc3nc(-c4ccccc4)cc(O)n3n2)cc1OC,IC50,[10],24.2 µM (active)
Cc1ccc(-c2n[nH]c3c2C(c2cccc(O)c2)N(c2ccc(C(=O)O)cc2)C3=O)cc1 (configuration not stated),IC50,[15],36.6 µM (active)
CCCCCCCC(=O)N/N=C(\C)c1ccc(O)cc1O,CC50,[2],12.6 µM (active)
same,CC50,[7],20 µM (active)
same,CC50,[8],20 µM (active)
Cc1sccc1/C=N/NC(=O)c1cccc2ccccc12,IC50,[23],21.1 µM (not active)
Cc1cccc(C)c1NC(=O)CSc1nnc(-c2ccccc2)n1Cc1ccc2c(c1)OCO2,EC50,[11],5.4 µM (active)
CC(Sc1nnnn1-c1ccccc1)C(=O)Nc1ccc(Cl)cn1 (configuration not stated),EC50,[11],6.14 µM (active)
CCC1=NN2C(=N)/C(=C/c3c(C)nn(-c4ccccc4)c3Cl)C(=O)N=C2S1,AC50,[24],78.8 µM (active)
same,IC50,[15],46.1 µM (active)
CC1(C)OC2CC(=O)OCC23C1CC(=O)C1(C)C3CCC2(C)C(c3ccoc3)OC(=O)C3OC321 (configuration not stated),GI50,[12],119 µM (inactive)
same,GI50,[13],> 125 µM (inactive)
same,GI50,[14],> 39.5 µM (inactive)
CCOc1ccc(NC(=O)CSCC(=O)O)cc1,IC50,[10],9.94 µM (active)
Cc1[nH]c2ccccc2c1/C=C/c1nc2ccccc2c(=O)[nH]1,IC50,[23],5.55 µM (active)
